“And” between values parts separate entries of the source, which are not always exact repeats. Equal values may be shown once. Read-outs that look alike come from different tables or passages of the source.
Assays:
[1] = test system: CCI model of neuropathic pain (mechanoallodynia) in mice; experiment: Mouse CCI model of neuropathic pain; assay type: in vivo; conditions: 3 μmol/kg p.o.; for duration of action in vivo (in words) / reversal of mechanoallodynia at 1 h (in words): CCI mice; for reversal of mechanoallodynia at 1 h (in words): 1 h after drug treatment
[2] = test system: CCI model of neuropathic pain (mechanoallodynia) in mice; conditions: 3 μmol/kg p.o., ref Tosh et al.[8], cited from earlier work
hA3AR = molecular target: T1, hA3AR (Homo sapiens, UniProt P0DMS8); experiment: Radioligand binding at hA3AR
T1 sequence (P0DMS8 1-318): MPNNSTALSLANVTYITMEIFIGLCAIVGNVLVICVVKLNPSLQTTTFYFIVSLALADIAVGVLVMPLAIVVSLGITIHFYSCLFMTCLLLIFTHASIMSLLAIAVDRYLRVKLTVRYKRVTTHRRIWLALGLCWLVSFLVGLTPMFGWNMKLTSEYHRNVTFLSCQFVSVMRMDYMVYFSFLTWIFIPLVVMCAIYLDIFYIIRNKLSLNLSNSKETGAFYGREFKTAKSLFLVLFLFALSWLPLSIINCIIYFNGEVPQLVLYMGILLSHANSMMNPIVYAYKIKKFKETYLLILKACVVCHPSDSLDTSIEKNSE

Structure (SMILES) | duration of action in vivo (in words) [1] | reversal of mechanoallodynia at 1 h (in words) [1] | other results
CNC(=O)[C@@]12C[C@@H]1[C@@H](n1cnc3c(NC4CCC4)nc(-n4cc(-c5ccc(Cl)s5)nn4)nc31)[C@H](O)[C@@H]2O [Compound 16] | prolonged in activity | – | –
CNC(=O)[C@@]12C[C@@H]1[C@@H](n1cnc3c(NC)nc(-n4cc(-c5cnn(C)c5)nn4)nc31)[C@H](O)[C@@H]2O [Compound 11] | – | nearly completely reversed | –
CNC(=O)[C@@]12C[C@@H]1[C@@H](n1cnc3c(NCCc4ccccc4)nc(-n4cc(-c5ccc(Cl)s5)nn4)nc31)[C@H](O)[C@@H]2O [Compound 18] | prolonged in activity | – | –
CNC(=O)[C@@]12C[C@@H]1[C@@H](n1cnc3c(NCc4cccc(Cl)c4)nc(C#Cc4ccc(F)c(F)c4)nc31)[C@H](O)[C@@H]2O [Compound 1] | – | – | Effect at 3h (% ± SEM), pain protection [2]: 24% and 23.7 ± 10.8%; Max. effect Emax (% ± SEM), reversal of reduction in PWT of ipsilateral hind paw [2]: 100 ± 0.0%
CNC(=O)[C@@]12C[C@@H]1[C@@H](n1cnc3c(NC)nc(C#Cc4ccc(Cl)s4)nc31)[C@H](O)[C@@H]2O [Compound 2] | – | – | Effect at 3h (% ± SEM), pain protection [2]: 83% and 82.8 ± 11.2%; Max. effect Emax (% ± SEM), reversal of reduction in PWT of ipsilateral hind paw [2]: 93.3 ± 6.7%
CNC(=O)[C@@]12C[C@@H]1[C@@H](n1cnc3c(NC)nc(-n4cc(-c5ccc(Br)s5)nn4)nc31)[C@H](O)[C@@H]2O [Compound 19] | – | nearly completely reversed | –
CNC(=O)[C@@]12C[C@@H]1[C@@H](n1cnc3c(NC)nc(-n4cc(-c5ncccn5)nn4)nc31)[C@H](O)[C@@H]2O [Compound 9] | – | nearly completely reversed | ligand efficiency with respect to A3AR affinity (hA3AR): 0.27
CNC(=O)[C@@]12C[C@@H]1[C@@H](n1cnc3c(NCc4cccc(Cl)c4)nc(-n4cc(-c5ccc(Cl)s5)nn4)nc31)[C@H](O)[C@@H]2O [Compound 17] | nearly full protection up to 4 h | – | Effect at 3h (% ± SEM), pain protection ([1]; day 7 after CCI, mice, 3 h after administration): > 90%
CCNc1nc(-n2cc(-c3ccc(Cl)s3)nn2)nc2c1ncn2[C@H]1[C@H](O)[C@H](O)[C@]2(C(=O)NC)C[C@H]12 [Compound 15] | – | nearly completely reversed | –
